Measurements: patent US20220177511A1, “SERIES OF HALOGENATED TETRACYCLIC TRITERPENE DERIVATIVES AND THEIR PREPARATION AND APPLICATION” (SHANGHAI KING-X BIOTECH CO., LTD, priority 2019, published 2022)
≈ marks a conversion by molar mass, not a printed value. Entries after “also recorded” stand apart in the source; their conditions may differ.

Columns and labels:
[1] = Solubility test in water and FaSSIF; assay type: physicochemical; conditions: 37° C., up to 24 hours
[2] = Metabolic stability in human liver microsomes; assay type: in vitro ADME; conditions: for Metabolic half-life of human liver microsomes: 5 μM compound, 1 mg/mL microsomes, 37° C.
Protocol: Preparation of the test sample: Compound 1 (prepared in Example 5), 2 (prepared in Example 4), and 5 (cycloastragenol, purchased from Chengdu Jintaihe Company) were dissolved with an appropriate amount of DMSO to obtain a concentration of 10 mM solution.
1) The compound was diluted with DMSO to 0.5 mM, and diluted to 1/20 with PBS before the experiment.
2) Human liver microsomes and potassium phosphate buffer were added to the EP tube respectively and mixed by gentle shaking.
3) Pre-incubate the EP tube in a metal bath at 37° C. for 5 minutes. 4) Compound 1, 2 or 5 were added and incubated at 37° C.
5) Take 100 μl of sample from the tube at 0, 60, 120, 240, and 360 minutes respectively, and add the sample to the stop tube (containing 100 μl of cooled acetonitrile solution). The mixture was shaken vigorously to terminate the reaction and then placed it in a −30° C. refrigerator until analysis.
6) Centrifuge at 14300 r/min and 4° C. for 10 minutes, aspirate the supernatant and place it in a −30° C. refrigerator until analysis.
Column: Shim-pack XR-ODS II, 2.0×75 mm; mobile phase: mobile phase B: aqueous solution containing 0.2% formic acid; mobile phase A: acetonitrile solution; mobile phase ratio: […]

[3] = Metabolic stability in rat liver microsomes; assay type: in vitro ADME; conditions: compared with compound 5 (cycloastragenol)

Solubility ([1]; FaSSIF (pH 6.5))	Solubility ([1]; Water)	Metabolic half-life of human liver microsomes [2]	Compound	metabolic stability in rat liver microsomes [3]	metabolic stability in human liver microsomes ([2]; compared with compound 5 (cycloastragenol))
49 µg/mL (≈ 99.9 µM)	8 µg/mL (≈ 16.3 µM)	0.308 h	CC(C)(O)[C@@H]1CC[C@](C)([C@H]2[C@@H](O)C[C@@]3(C)[C@@H]4C[C@H](O)[C@H]5C(C)(C)[C@@H](O)CC[C@@]56C[C@@]46CC[C@]23C)O1 [Compound 5, (2aR,3R,4S,5aS,5bS,7S,7aR,9S,11aR,12aS)-3-((2S,5S)-5-(2-hydroxypropan-2-yl)-2-methyltetrahydrofuran-2-yl)-2a,5a,8,8-tetramethyltetradecahydro-1H,12H-cyclopenta[a]cyclopropa[e]phenanthrene-4,7,9-triol, reference compound]	–	–
–	–	3.893 h	(2aR,3R,4S,5aS,5bS,7S,7aR,9R,11aR,12aS)-9-halogen-3-((2R,5S)-5-(2-hydroxypropan-2-yl)-2-methyltetrahydrofuran-2-yl)-2a,5a,8,8-tetramethyltetradecahydro-1H,12H-cyclopenta[a]cyclopropa[e]phenanthrene-4,7-diol [Compound 1]	relatively stable; also recorded: more stable than cycloastragenol	relatively stable; also recorded: more stable than cycloastragenol
